# Reference: the supplement of paper PMC10307832
# Assays:
# Test in all cases: relative viability (nuclei count vs DMSO), 5 days (fraction); higher = more cells survive
# [1] = test system: A-427
# How it was run: (§1)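 Dosing by pin tool came one day after lung cancer cell lines were seeded in 1536-well plates, using either one drug or a fixed anchor-drug dose plus five library-drug doses (not always all listed) in √10 steps. After 5 days, nuclei were counted on 4× images. Relative viability is treated-well nuclei count divided by vehicle-well nuclei count, and values are medians of duplicate plates.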
# [2] = test system: COR-L 105
# How it was run: as §1
# [3] = test system: ChaGo-K-1
# How it was run: as §1
# [4] = test system: EKVX
# How it was run: as §1
# [5] = test system: EMC-BAC-2
# How it was run: as §1
# [6] = test system: H3255
# How it was run: as §1
# [7] = test system: HCC-366
# How it was run: as §1
# [8] = test system: LK-2
# How it was run: as §1
# [9] = test system: LOU-NH91
# How it was run: as §1
# [10] = test system: NCI-H1563
# How it was run: as §1
# [11] = test system: NCI-H1666
# How it was run: as §1
# [12] = test system: NCI-H1734
# How it was run: as §1
# [13] = test system: NCI-H1755
# How it was run: as §1
# [14] = test system: NCI-H1975
# How it was run: as §1
# [15] = test system: NCI-H2170
# How it was run: as §1
# [16] = test system: NCI-H23
# How it was run: as §1
# [17] = test system: NCI-H441
# How it was run: as §1
# [18] = test system: NCI-H520
# How it was run: as §1
# [19] = test system: NCI-H596
# How it was run: as §1
# [20] = test system: PC-3 [JPC-3]
# How it was run: as §1
# [21] = test system: SK-MES-1
# How it was run: as §1
structure (smiles),measurement,setting,value
CCN(CC)CCCCNc1ncc2cc(-c3cc(OC)cc(OC)c3)c(NC(=O)NC(C)(C)C)nc2n1 + C[C@@H](Oc1cc(-c2cnn(C3CCNCC3)c2)cnc1N)c1c(Cl)ccc(F)c1Cl [Crizotinib] (partner 1 µM),relative viability,[1]; first compound 0.01 µM,0.886
same,relative viability,[1]; first compound 0.03162 µM,0.812
same,relative viability,[1]; first compound 0.1 µM,0.875
same,relative viability,[1]; first compound 0.3162 µM,0.909
same,relative viability,[1]; first compound 1 µM,0.727
same,relative viability,[2]; first compound 0.01 µM,0.795
same,relative viability,[2]; first compound 0.03162 µM,0.796
same,relative viability,[2]; first compound 0.1 µM,0.887
same,relative viability,[2]; first compound 0.3162 µM,0.777
same,relative viability,[2]; first compound 1 µM,0.658
same,relative viability,[3]; first compound 0.01 µM,1.24
same,relative viability,[3]; first compound 0.03162 µM,1.08
same,relative viability,[3]; first compound 0.1 µM,1.09
same,relative viability,[3]; first compound 0.3162 µM,1.32
same,relative viability,[3]; first compound 1 µM,1.06
same,relative viability,[4]; first compound 0.01 µM,1.21
same,relative viability,[4]; first compound 0.03162 µM,0.924
same,relative viability,[4]; first compound 0.1 µM,1.04
same,relative viability,[4]; first compound 0.3162 µM,0.841
same,relative viability,[4]; first compound 1 µM,0.664
same,relative viability,[5]; first compound 0.01 µM,0.851
same,relative viability,[5]; first compound 0.03162 µM,0.761
same,relative viability,[5]; first compound 0.1 µM,0.85
same,relative viability,[5]; first compound 0.3162 µM,0.839
same,relative viability,[5]; first compound 1 µM,0.735
same,relative viability,[6]; first compound 0.01 µM,0.936
same,relative viability,[6]; first compound 0.03162 µM,0.885
same,relative viability,[6]; first compound 0.1 µM,1.14
same,relative viability,[6]; first compound 0.3162 µM,1.01
same,relative viability,[6]; first compound 1 µM,0.843
same,relative viability,[7]; first compound 0.01 µM,0.632
same,relative viability,[7]; first compound 0.03162 µM,0.924
same,relative viability,[7]; first compound 0.1 µM,0.947
same,relative viability,[7]; first compound 0.3162 µM,0.741
same,relative viability,[7]; first compound 1 µM,0.512
same,relative viability,[8]; first compound 0.01 µM,0.235
same,relative viability,[8]; first compound 0.03162 µM,0.25
same,relative viability,[8]; first compound 0.1 µM,0.231
same,relative viability,[8]; first compound 0.3162 µM,0.246
same,relative viability,[8]; first compound 1 µM,0.258
same,relative viability,[9]; first compound 0.01 µM,0.733
same,relative viability,[9]; first compound 0.03162 µM,0.723
same,relative viability,[9]; first compound 0.1 µM,0.776
same,relative viability,[9]; first compound 0.3162 µM,0.747
same,relative viability,[9]; first compound 1 µM,0.725
same,relative viability,[10]; first compound 0.01 µM,0.86
same,relative viability,[10]; first compound 0.03162 µM,0.836
same,relative viability,[10]; first compound 0.1 µM,0.816
same,relative viability,[10]; first compound 0.3162 µM,0.833
same,relative viability,[10]; first compound 1 µM,0.623
same,relative viability,[11]; first compound 0.01 µM,1.17
same,relative viability,[11]; first compound 0.03162 µM,0.985
same,relative viability,[11]; first compound 0.1 µM,0.895
same,relative viability,[11]; first compound 0.3162 µM,1.02
same,relative viability,[11]; first compound 1 µM,1.09
same,relative viability,[12]; first compound 0.01 µM,0.652
same,relative viability,[12]; first compound 0.03162 µM,0.647
same,relative viability,[12]; first compound 0.1 µM,0.807
same,relative viability,[12]; first compound 0.3162 µM,0.719
same,relative viability,[12]; first compound 1 µM,0.667
same,relative viability,[13]; first compound 0.01 µM,0.928
same,relative viability,[13]; first compound 0.03162 µM,0.94
same,relative viability,[13]; first compound 0.1 µM,1.17
same,relative viability,[13]; first compound 0.3162 µM,0.984
same,relative viability,[13]; first compound 1 µM,0.892
same,relative viability,[14]; first compound 0.01 µM,1.35
same,relative viability,[14]; first compound 0.03162 µM,1.02
same,relative viability,[14]; first compound 0.1 µM,1.05
same,relative viability,[14]; first compound 0.3162 µM,0.94
same,relative viability,[14]; first compound 1 µM,0.82
same,relative viability,[15]; first compound 0.01 µM,1.35
same,relative viability,[15]; first compound 0.03162 µM,1.34
same,relative viability,[15]; first compound 0.1 µM,1.32
same,relative viability,[15]; first compound 0.3162 µM,1.27
same,relative viability,[15]; first compound 1 µM,1.16
same,relative viability,[16]; first compound 0.01 µM,0.537
same,relative viability,[16]; first compound 0.03162 µM,0.568
same,relative viability,[16]; first compound 0.1 µM,0.496
same,relative viability,[16]; first compound 0.3162 µM,0.536
same,relative viability,[16]; first compound 1 µM,0.511
same,relative viability,[17]; first compound 0.01 µM,0.676
same,relative viability,[17]; first compound 0.03162 µM,0.897
same,relative viability,[17]; first compound 0.1 µM,0.73
same,relative viability,[17]; first compound 0.3162 µM,0.886
same,relative viability,[17]; first compound 1 µM,0.762
same,relative viability,[18]; first compound 0.01 µM,0.901
same,relative viability,[18]; first compound 0.03162 µM,0.825
same,relative viability,[18]; first compound 0.1 µM,0.86
same,relative viability,[18]; first compound 0.3162 µM,0.61
same,relative viability,[18]; first compound 1 µM,0.297
same,relative viability,[19]; first compound 0.01 µM,0.918
same,relative viability,[19]; first compound 0.03162 µM,1.04
same,relative viability,[19]; first compound 0.1 µM,1.02
same,relative viability,[19]; first compound 0.3162 µM,0.956
same,relative viability,[19]; first compound 1 µM,0.894
same,relative viability,[20]; first compound 0.01 µM,1
same,relative viability,[20]; first compound 0.03162 µM,1.01
same,relative viability,[20]; first compound 0.1 µM,1.04
same,relative viability,[20]; first compound 0.3162 µM,1.04
same,relative viability,[20]; first compound 1 µM,0.889
same,relative viability,[21]; first compound 0.01 µM,1.06
same,relative viability,[21]; first compound 0.03162 µM,1.05
same,relative viability,[21]; first compound 0.1 µM,1.14
same,relative viability,[21]; first compound 0.3162 µM,1.03
same,relative viability,[21]; first compound 1 µM,1.01
